From patent US20090221621A1, “Methods of Reducing Alcohol-Induced Dose Dumping for Opioid Sustained Release Oral Dosage Forms” (priority 2005, published 2009)

Experiment: Release test of matrix tablets, USP Type VII, 40% EtOH/water 0-4 hrs then water vs water only (Examples 9-11)
Format: physicochemical
Settings: oxycodone HCl and hydromorphone HCl 30 mg tablets with vs without stearyl alcohol, FIGS. 12 and 13
Protocol: Ten grams each of formulations with and without stearyl alcohol were prepared via wet granulation technique. The amounts set forth in Tables 5 and 6 of oxycodone hydrochloride, lactose and Eudragit® RS PO were combined in an appropriate vessel and blended for 5 minutes. The powder mixture was granulated with water until a moist mass was produced. The wet mass was then passed through a 16-mesh size screen and was allowed to dry overnight at ambient conditions. In a small vessel, the required amount of stearyl alcohol (a stiffening agent) was melted over a water bath. Keeping the molten stearyl alcohol in the water bath, the desired amount of dried granules were added and mixed until the granules were sufficiently coated with the molten stearyl alcohol. The mixture was removed from the water bath and allowed to cool at ambient conditions before sizing through a 16-mesh screen. Talc and magnesium stearate were added to the coated granules and blended using a suitable blender. The granules were then compressed to 375 mg tablets using an appropriate tabletting machine, such as a Carver press. For granules that were not coated with stearyl alcohol, granules were compressed to 300 mg tablets.
The same manufacturing procedure as Example 7 was used, with the substitution of hydromorphone HCl instead of oxycodone HCl.
Samples for this test came from Examples 7 and 8. […]

CCCCCCCCCCCCCCCCCCO [Stearyl alcohol, stearyl alcohol]
Effect of the excipient on ethanol effect on opioid release functionality: suppressed ethanol effect on opioid functionality
